# From article PMC7506137, “Selective Phosphodiesterase 1 Inhibitor BTTQ Reduces Blood Pressure in Spontaneously Hypertensive and Dahl Salt Sensitive Rats: Role of Peripheral Vasodilation” (Frontiers in Physiology, 2020)
# Where two headings read alike, the source gives them in different places.
# Assay: Plasma exposure (dried blood spot) after single oral dose
# Format: in vivo
# Settings: male, Sprague Dawley, rat, whole blood (dried blood spot), po
# Method: Male Sprague Dawley rats at 6 to 7 weeks were dosed orally by p.o. gavage with different doses of BTTQ formulated in 1% hydroxyethlycellulose (Dow Corning, Midland, MI, United States) (w/v), 0.25% polysorbate 80 (Sigma-Aldrich, St. Louis, MO, United States) (v/v), and 0.05% antifoam (v/v; Dow Corning, Midland, MI, United States) in purified water. Following dosing, ear temperature was measured by using a k-type thermocouple probe digital thermometer (Cole Parmer) every hour for 6 h and then at 24 h. Blood samples for plasma exposure measurement were obtained at the same time. Blood was collected via a tail snip directly into a 20-μL EDTA-coated capillary and immediately spotted onto a Whatman DMPK-C DBS card (GE Healthcare Bio-Sciences). Tail snips were performed by removing approximately 1 mm of the tail by using a scalpel. Blood flow was initiated by gentle squeezing of the tail. No analgesia or anesthesia was used during blood collections. A single sample and spot were collected per time point. The DBS cards were allowed to dry for approximately 2 h at room temperature, after which the cards were placed in a zip-top bag, stored, and shipped at ambient temperature.
# [1] = 0.03 mg/kg, oral 0.03 mg/kg, FU 0.053, read-out: Unbound Concentration, Mean
# [2] = 0.03 mg/kg, oral 0.03 mg/kg, dried blood spot, read-out: Concentration, Mean
# [3] = 0.03 mg/kg, oral 0.03 mg/kg, FU 0.053, read-out: Unbound Concentration, individual animals
# [4] = 0.03 mg/kg, oral 0.03 mg/kg, dried blood spot, read-out: Concentration, individual animals
# [5] = 0.1 mg/kg, oral 0.1 mg/kg, FU 0.053, read-out: Unbound Concentration, Mean
# [6] = 0.1 mg/kg, oral 0.1 mg/kg, FU 0.053, read-out: Unbound Concentration, individual animals
# [7] = 0.1 mg/kg, oral 0.1 mg/kg, dried blood spot, read-out: Concentration, Mean
# [8] = 0.1 mg/kg, oral 0.1 mg/kg, dried blood spot, read-out: Concentration, individual animals
# [9] = 0.3 mg/kg, oral 0.3 mg/kg, FU 0.053, read-out: Unbound Concentration, Mean
# [10] = 0.3 mg/kg, oral 0.3 mg/kg, FU 0.053, read-out: Unbound Concentration, individual animals
# [11] = 0.3 mg/kg, oral 0.3 mg/kg, dried blood spot, read-out: Concentration, Mean
# [12] = 0.3 mg/kg, oral 0.3 mg/kg, dried blood spot, read-out: Concentration, individual animals
# [13] = 1 mg/kg, oral 1 mg/kg, FU 0.053, read-out: Unbound Concentration, Mean
smiles,measurement,setting,value
"O=c1c2nnc(C3(C4CC4)CC3)n2c2c(n1CC1CC1)CCCC2 [BTTQ, 1-[1,1′-bi(cyclopropyl)-1-yl]-5-(cyclopropylmethyl)-6,7,8,9-tetrahydro[1,2,4]triazolo[4,3-A]quinoxaline-4(5H)-one]",concentration at 1 h,[1],0.00252 µM
same,concentration at 1 h,[2],0.0475 µM
same,concentration at 2 h,[1],0.00266 µM
same,concentration at 2 h,[3],0.00217 µM
same,concentration at 2 h,[2],0.0502 µM
same,concentration at 2 h,[4],0.0409 µM
same,concentration at 3 h,[1],0.00223 µM
same,concentration at 3 h,[3],0.00204 µM
same,concentration at 3 h,[2],0.0421 µM
same,concentration at 3 h,[4],0.0384 µM
same,concentration at 4 h,[1],0.00181 µM
same,concentration at 4 h,[3],0.00167 µM
same,concentration at 4 h,[2],0.0342 µM
same,concentration at 4 h,[4],0.0316 µM
same,concentration at 5 h,[1],0.0015 µM
same,concentration at 5 h,[3],0.00186 µM
same,concentration at 5 h,[2],0.0283 µM
same,concentration at 5 h,[4],0.0351 µM
same,concentration at 6 h,[1],0.00116 µM
same,concentration at 6 h,[2],0.022 µM
same,concentration at 24 h,[1],0 µM
same,concentration at 24 h,[2],0 µM
same,concentration at 1 h,[5],0.0106 µM
same,concentration at 1 h,[6],0.0132 µM
same,concentration at 1 h,[7],0.201 µM
same,concentration at 1 h,[8],0.249 µM
same,concentration at 2 h,[5],0.01 µM
same,concentration at 2 h,[6],0.0117 µM
same,concentration at 2 h,[7],0.189 µM
same,concentration at 2 h,[8],0.22 µM
same,concentration at 3 h,[5],0.00898 µM
same,concentration at 3 h,[6],0.0089 µM
same,concentration at 3 h,[7],0.169 µM
same,concentration at 3 h,[8],0.168 µM
same,concentration at 4 h,[5],0.00675 µM
same,concentration at 4 h,[6],0.0071 µM
same,concentration at 4 h,[7],0.127 µM
same,concentration at 4 h,[8],0.134 µM
same,concentration at 5 h,[5],0.00513 µM
same,concentration at 5 h,[6],0.00599 µM
same,concentration at 5 h,[7],0.0969 µM
same,concentration at 5 h,[8],0.113 µM
same,concentration at 6 h,[5],0.00461 µM
same,concentration at 6 h,[6],0.00462 µM
same,concentration at 6 h,[7],0.087 µM
same,concentration at 6 h,[8],0.0871 µM
same,concentration at 24 h,[5],0.000462 µM
same,concentration at 24 h,[6],0.00231 µM
same,concentration at 24 h,[7],0.0087 µM
same,concentration at 24 h,[8],0.0435 µM
same,concentration at 1 h,[9],0.0277 µM
same,concentration at 1 h,[10],0.0242 µM
same,concentration at 1 h,[11],0.523 µM
same,concentration at 1 h,[12],0.456 µM
same,concentration at 2 h,[9],0.0237 µM
same,concentration at 2 h,[10],0.0193 µM
same,concentration at 2 h,[11],0.447 µM
same,concentration at 2 h,[12],0.364 µM
same,concentration at 3 h,[9],0.0166 µM
same,concentration at 3 h,[10],0.0147 µM
same,concentration at 3 h,[11],0.314 µM
same,concentration at 3 h,[12],0.278 µM
same,concentration at 4 h,[9],0.0118 µM
same,concentration at 4 h,[10],0.0123 µM
same,concentration at 4 h,[11],0.223 µM
same,concentration at 4 h,[12],0.232 µM
same,concentration at 5 h,[9],0.00868 µM
same,concentration at 5 h,[10],0.00875 µM
same,concentration at 5 h,[11],0.164 µM
same,concentration at 5 h,[12],0.165 µM
same,concentration at 6 h,[9],0.00673 µM
same,concentration at 6 h,[10],0.00726 µM
same,concentration at 6 h,[11],0.127 µM
same,concentration at 6 h,[12],0.137 µM
same,concentration at 24 h,[9],0 µM
same,concentration at 24 h,[11],0 µM
same,concentration at 1 h,[13],0.0925 µM
same,concentration at 1 h,"1 mg/kg, oral 1 mg/kg, dried blood spot, read-out: Concentration, Mean",1.75 µM
same,concentration at 2 h,[13],0.0876 µM
